The text below walks through data of US9328112B2, “Tetracyclic CDK9 kinase inhibitors” (AbbVie Inc., priority 2014, dated 2016).

A word on the IC50: it is the concentration at which inhibition is half-maximal. Read a low IC50 as inhibition by little substance.

In one experiment the target is CDK9/Cyclin T1 (Homo sapiens (Human), UniProt P50750). In words: CDK9 enzyme assay (LANCE ULight TR-FRET kinase assay). The class given is biochemical. The settings on record: 1000 μM ATP, 100 nM ULight MBP, kinase reaction 1 hour. The essentials:
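TR-FRET readout (ex 320 nm; em 615/665 nm) after 1 h detection with 0.5 nM europium anti-phospho-MBP antibody in 20 mM EDTA stop buffer. Preceding 1 h kinase step: CDK9/Cyclin T1, ULight-MBP substrate at 100 nM, ATP at 1000 μM, compound pre-diluted in DMSO then buffer.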
(In TR-FRET formats the signal depends on donor and acceptor labels being close together.)

In a further experiment the test system is H929 cells. As to the kind of experiment: Cell viability assay (Cell TiterGlo). The class given is cell-based. The settings on record: Cell TiterGlo luminescence. How it is done:
The cell viability assay was performed using H929 cells. Cells were seeded in 96-well plates at 10,000 cells/well and, after overnight incubation, treated with compounds in a dose response of 3-fold dilutions from 10 μM to 0.005 μM ([…], 0.1% final DMSO concentration). After 24 hours at 37° C., cell viability was measured using Cell TiterGlo reagent (Promega) with a luminescence reader.

[1] abbreviates: Homo sapiens, NCI-H929, 24 hours at 37° C.

Molecules are shown by their SMILES.

CDK9/Cyclin T1, sequence (P50750 whole entry): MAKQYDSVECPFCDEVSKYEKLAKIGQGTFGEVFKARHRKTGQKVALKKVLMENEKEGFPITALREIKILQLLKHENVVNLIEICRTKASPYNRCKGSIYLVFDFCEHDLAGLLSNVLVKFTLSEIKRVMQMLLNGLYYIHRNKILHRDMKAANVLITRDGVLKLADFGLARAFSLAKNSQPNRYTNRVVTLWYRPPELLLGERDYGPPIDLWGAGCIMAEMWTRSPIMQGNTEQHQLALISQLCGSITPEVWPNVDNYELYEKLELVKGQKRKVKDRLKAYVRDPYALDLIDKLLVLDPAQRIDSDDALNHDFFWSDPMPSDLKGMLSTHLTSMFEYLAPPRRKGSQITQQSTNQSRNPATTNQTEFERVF
CDK9/Cyclin T1, sequence (O60563 whole entry partner): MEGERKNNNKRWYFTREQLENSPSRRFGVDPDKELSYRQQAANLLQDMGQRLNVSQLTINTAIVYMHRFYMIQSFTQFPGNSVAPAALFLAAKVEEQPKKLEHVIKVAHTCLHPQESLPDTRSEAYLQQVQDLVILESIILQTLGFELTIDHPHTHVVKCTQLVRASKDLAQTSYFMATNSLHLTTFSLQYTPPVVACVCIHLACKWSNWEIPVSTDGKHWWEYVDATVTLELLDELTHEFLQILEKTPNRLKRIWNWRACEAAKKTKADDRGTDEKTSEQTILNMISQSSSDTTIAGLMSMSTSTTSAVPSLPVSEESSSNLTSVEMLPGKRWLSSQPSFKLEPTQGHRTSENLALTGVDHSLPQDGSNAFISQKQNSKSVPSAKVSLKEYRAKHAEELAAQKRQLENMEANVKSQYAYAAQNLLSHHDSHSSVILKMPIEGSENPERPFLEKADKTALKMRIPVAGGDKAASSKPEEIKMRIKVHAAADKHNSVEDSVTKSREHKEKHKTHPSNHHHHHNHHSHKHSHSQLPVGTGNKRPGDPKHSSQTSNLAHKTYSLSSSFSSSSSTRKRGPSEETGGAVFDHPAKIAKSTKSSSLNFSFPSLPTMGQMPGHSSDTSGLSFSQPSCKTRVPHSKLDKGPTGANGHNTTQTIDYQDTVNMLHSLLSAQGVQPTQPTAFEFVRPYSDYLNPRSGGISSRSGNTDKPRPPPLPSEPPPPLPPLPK

In the case of `CN1Cc2c(C3=CCN(CC(=O)N4CC[C@H](O)C4)CC3)[nH]c3nccc(c23)-c2cc(F)ccc21` [Example 42, 2-[4-(10-fluoro-7-methyl-6,7-dihydro-4H-3,4,7-triazadibenzo[cd,f]azulen-5-yl)-3,6-dihydropyridin-1(2H)-yl]-1-[(3S)-3-hydroxypyrrolidin-1-yl]ethanone], the values for the IC50 against CDK9/Cyclin T1 and with H929 cells (setting [1]) were 48 nM and 79 nM, respectively.
In the same order, the values of `CN1Cc2c(C3=CCN(CC(=O)N4CC(O)C4)CC3)[nH]c3nccc(c23)-c2cc(F)c(F)cc21` [Example 137, 2-[4-(9,10-difluoro-7-methyl-6,7-dihydro-4H-3,4,7-triazadibenzo[cd,f]azulen-5-yl)-3,6-dihydropyridin-1(2H)-yl]-1-(3-hydroxyazetidin-1-yl)ethanone] are 52 nM and 45 nM.
Taken in the same sequence, the figures for `CN(CCO)C(=O)CN1CC2C=C(c3[nH]c4nccc5c4c3CN(C)c3ccc(F)cc3-5)CC2C1` (stereo not shown) [Example 86, 2-[5-(10-fluoro-7-methyl-6,7-dihydro-4H-3,4,7-triazadibenzo[cd,f]azulen-5-yl)-3,3a,4,6a-tetrahydrocyclopenta[c]pyrrol-2(1H)-yl]-N-(2-hydroxyethyl)-N-methylacetamide] were 43 nM and 94 nM.
In the same order, the values of `CN1Cc2c(C3=CCN(CC(=O)O)CC3)[nH]c3ncc(F)c(c23)-c2cc(F)ccc21` [Example 67, [4-(1,10-difluoro-7-methyl-6,7-dihydro-4H-3,4,7-triazadibenzo[cd,f]azulen-5-yl)-3,6-dihydropyridin-1(2H)-yl]acetic acid] are 48 nM and 130 nM.
`CN1Cc2c(C3=C[C@H]4CC[C@@H](C3)N4CC(=O)N3CCC[C@H]3CO)[nH]c3nccc(c23)-c2cc(F)ccc21` [Example 79, 2-[(1R,5S)-3-(10-fluoro-7-methyl-6,7-dihydro-4H-3,4,7-triazadibenzo[cd,f]azulen-5-yl)-8-azabicyclo[3.2.1]oct-2-en-8-yl]-1-[(2S)-2-(hydroxymethyl)pyrrolidin-1-yl]ethanone]: the IC50 against CDK9/Cyclin T1 was 72 nM; with H929 cells (setting [1]), 49 nM.
`CN1Cc2c(C3=CCN(S(C)(=O)=O)CC3)[nH]c3nccc(c23)-c2cc(F)c(F)cc21` [Example 131, 9,10-difluoro-7-methyl-5-[1-(methylsulfonyl)-1,2,3,6-tetrahydropyridin-4-yl]-6,7-dihydro-4H-3,4,7-triazadibenzo[cd,f]azulene]: the figures for the IC50 against CDK9/Cyclin T1 and with H929 cells (setting [1]) were 36 nM and 79 nM, respectively.
For the compound `CN1Cc2c(C3=CCN([C@H]4CC[C@H](CC(=O)O)CC4)CC3)[nH]c3nccc(c23)-c2cc(F)c(F)cc21` [Example 146, {trans-4-[4-(9,10-difluoro-7-methyl-6,7-dihydro-4H-3,4,7-triazadibenzo[cd,f]azulen-5-yl)-3,6-dihydropyridin-1(2H)-yl]cyclohexyl}acetic acid], the IC50 is 82 nM at CDK9/Cyclin T1 and 32 nM in the experiment with H929 cells (setting [1]).
On to `CN1Cc2c(C3=CCCNCC3)[nH]c3nccc(c23)-c2cc(F)ccc21` [Example 87, 10-fluoro-7-methyl-5-(2,3,6,7-tetrahydro-1H-azepin-4-yl)-6,7-dihydro-4H-3,4,7-triazadibenzo[cd,f]azulene], for which the concentration for half-maximal inhibition (IC50) is 90 nM on CDK9/Cyclin T1 and 100 nM in the experiment on H929 cells (setting [1]).
Regarding `COC(=O)C(C)=C1CCC(N2CC=C(c3[nH]c4nccc5c4c3CN(C)c3ccc(F)cc3-5)CC2)CC1` (stereo not shown) [Example 174, methyl 2-{4-[4-(10-fluoro-7-methyl-6,7-dihydro-4H-3,4,7-triazadibenzo[cd,f]azulen-5-yl)-3,6-dihydropyridin-1(2H)-yl]cyclohexylidene}propanoate], the half-maximal inhibitory concentration (IC50) against CDK9/Cyclin T1 was found to be 57 nM; in the experiment on H929 cells (setting [1]), 120 nM.
Taken in the same sequence, the figures for `CN(CC(O)CO)C(=O)CN1CCC=C(c2[nH]c3nccc4c3c2CN(C)c2ccc(F)cc2-4)C1` (stereo not shown) [Example 123, N-(2,3-dihydroxypropyl)-2-[5-(10-fluoro-7-methyl-6,7-dihydro-4H-3,4,7-triazadibenzo[cd,f]azulen-5-yl)-3,6-dihydropyridin-1(2H)-yl]-N-methylacetamide] were 540 nM and 3100 nM.
In the case of `CN1CCc2c(C3=CCNCC3)[nH]c3nccc(c23)-c2cc(F)ccc21` [Example 127, 8-fluoro-5-methyl-2-(1,2,3,6-tetrahydropyridin-4-yl)-1,3,4,5-tetrahydro-1,5,12-triazabenzo[4,5]cycloocta[1,2,3-cd]indene], the half-maximal inhibitory concentration (IC50) against CDK9/Cyclin T1 was 26 nM; in the experiment with H929 cells (24 hours at 37° C.) it was 100 nM.
